Measured values reported in patent US20220280653A1, “INTERCELLULAR ADHESION MOLECULE 1 (ICAM1) ANTIBODY DRUG CONJUGATE AND USES THEREOF” (Children's Medical Center Corporation, priority 2019, published 2022).
Counter-ions that a name gives are not always drawn.

Columns and labels:
PANC-1 cells = assay: Cytotoxicity assay (CCK-8); format: cell-based; conditions: Homo sapiens; PANC-1, 72 hours
Method: Human pancreatic cancer cell lines were seeded in a 96-well plate at a density of 5x10^3 cells/well and allowed to adhere overnight. The culture medium was then replaced with medium containing free GEM, IgG or ICAM1 conjugated DM1, Duo, MMAE, MMAF at different drug concentrations. After cells were cultured for another 72 hours, the cytotoxicity was determined by CCK-8 assay following the vendor-provided protocol. Cells were carefully rinsed with PBS after the drug-containing medium was removed, and this was followed by adding the CCK-8 containing medium solution. The cells were then incubated with the CCK-8 medium for 4 hours. The plate was read at the absorbance wavelength of 450 nm using a microplate reader (Synergy2; BioTek, Winooski, Vt., USA). Cell viability was determined by comparing the absorbance of cells incubated with drugs to that of the control cells incubated without the presence of the drug.

[1] = in vivo; cited from earlier work

## Nc1ccn([C@@H]2O[C@H](CO)[C@@H](O)C2(F)F)c(=O)n1 [GEM, Gemcitabine hydrochloride]
PANC-1 cells
  IC50: 89.1 µM
[1]
  circulation half-life: 16.8 min
